In US4943576A, “Substituted quinoxalyl-imidazolidine-2,4-diones, processes for their preparation, their use as medicaments and pharmaceutical preparations” (Hoechst Aktiengesellschaft, priority 1987, dated 1990):

Tests used:
aldose reductase = aldose reductase (Rattus norvegicus, UniProt P07943); experiment: In vitro inhibition of enzyme activity (rat hepatic enzyme preparation); type: biochemical; details: read-out: IC50 (molar concentration required for 50% inhibition of aldose reductase)
Excerpt: 1. in vitro inhibition of the enzyme activity of isolated aldose reductase;
In vitro inhibition of enzyme activity (rat hepatic enzyme preparation)
The inhibiting values on aldose reductase are summarized in Table 1 for some compounds according to the invention (IC50 [M] denotes the molar concentration of the compound which is required for 50% inhibition).

[1] = system: sorbitol accumulation in erythrocytes; experiment: Reduction of increased sorbitol levels in streptozotocin-diabetic rats, erythrocytes; type: in vivo; details: 25 mg/kg oral in Tylose suspension, vs untreated controls
Excerpt: (§1) 3. reduction of increased sorbitol levels in streptozotocin-diabetic rats in vivo;
(§2) Reduction of increased sorbitol levels
(§3) The oral administration in ®Tylose suspension (=suspension of a water-soluble cellulose ether), of the substances mentioned as examples in the following Table 3 to streptozotocin-diabetic rats leads to a great reduction in the sorbitol accumulation in erythrocytes and in the nerve tissue in comparison with untreated control animals.

[2] = system: sorbitol accumulation in nerve tissue; experiment: Reduction of increased sorbitol levels in streptozotocin-diabetic rats, nerve tissue; type: in vivo; details: 25 mg/kg oral in Tylose suspension, vs untreated controls
Excerpt: as §1, §2, §3

[3] = system: sorbitol accumulation in erythrocytes; experiment: In vitro inhibition of sorbitol accumulation, erythrocytes (tissue of normal rats); type: cell-based; details: Rattus norvegicus, Erythrocyte, 3 μmol/l
Method: (§4) 2. in vitro inhibition of the sorbitol accumulation in erythrocytes in the lens or in the sciatic nerve of normal or streptozotocin-diabetic rats;
(§5) In vitro inhibition of sorbitol accumulation (tissue of normal rats)
(§6) The inhibiting values summarized in Table 2 were determined for some of the compounds according to the invention at a concentration of 3 μmol/l.

[4] = system: sorbitol accumulation in nerve; experiment: In vitro inhibition of sorbitol accumulation, nerve (tissue of normal rats); type: cell-based; details: Rattus norvegicus, 3 μmol/l
Method: as §4, §5, §6

| IC50 (aldose reductase) [µM] | Molecule | Sorbitol content after 5 hours in erythrocytes [1] [%] | Sorbitol content after 5 hours in nerve tissue [2] [%] | inhibition at 3 µM [3] [%] | inhibition at 3 µM [4] [%] |
| --- | --- | --- | --- | --- | --- |
| 280 | 5-(6'/7'-Fluoro-3'-methyl-quinoxalin-2'-yl)-5-methyl-imidazolidine-2,4-dion [Example 26] |  |  |  |  |
|  | 5-(6'/7'-Fluoro-quinoxalin-2'-yl)-5-methyl-imidazolidine-2,4-dione [Example 25] | -66 | -70 |  |  |
|  | Cc1nc2ccccc2nc1C1(C)NC(=O)NC1=O (single isomer, unassigned; (+)) [Example 33, (+)-5-Methyl-5-(3'-methyl-quinoxalin-2'-yl)-imidazolidine-2,4-dione] |  |  | -26 | -30 |
|  | CCc1nc2ccc(C3(C)NC(=O)NC3=O)cc2nc1CC (centres unmarked) [Example 2, 5-(2',3'-Diethyl-quinoxalin-6'-yl)-5-methyl-imidazolidine2,4-dione] | -57 | -22 |  | -30 |
|  | CC1(c2cnc3ccccc3n2)NC(=O)NC1=O (centres unmarked) [Example 18, 5-(Quinoxalin-2'-yl)-5-methyl-imidazolidine-2,4-dione] |  |  | -10 | -39 |
|  | Cc1cc2nc(C)c(C3(C)NC(=O)NC3=O)nc2cc1C (centres unmarked) [Example 20, 5-Methyl-5-(3',6',7'-trimethyl-quinoxalin-2'-yl)-imidazolidine-2,4-dione hydrate] |  |  | -29 |  |
|  | COc1cc2ncc(C3(C)NC(=O)NC3=O)nc2cc1OC (centres unmarked) [Example 21, 5-(6',7'-Dimethoxy-quinoxalin-2'-yl)-5-methyl-imidazolidine-2,4-dione] |  |  | -26 | -38 |
|  | Cc1nc2ccccc2nc1C1(C)NC(=O)NC1=O (centres unmarked) [Example 23, 5-Methyl-5-(3'-methyl-quinoxalin-2'-yl)-imidazolidine-2,4-dione] | -72 | -83 | -21 | -65 |
